Structures are written as SMILES.

As for `Cn1c(COc2ccc(CC3SC(=O)NC3=O)cc2)nc2ccccc21` (centres undefined), the melting point (usually the temperature of the solid-liquid transition) is 230 to 231 °C.
With `COc1ccc(S(=O)(=O)Nc2c(C)cc(C#N)cc2C(=O)O)cc1` the figure was 175 °C.
To `CCOC(=O)C1=C(N)N=C(OCC)C(C(=O)OCC)C1c1cccc(Cl)c1` (centres undefined) belongs 121 °C.
Regarding `COc1ccccc1-n1c(=O)[nH]c2c(C(N)=O)nc(-c3ccc(C(N)=O)cc3)nc21`, the melting point was more than 350 °C.
To `CC(=O)Nc1ccc(OS(N)(=O)=O)cc1` belongs 180 to 181 °C; to `Cc1c(C)c2c(c(C)c1N)CC(C)(CN1CCN(CCc3ccccc3)CC1)O2` (centres undefined), 99 to 100 °C.
With `CC(=O)Nc1ccc(C(F)(F)F)cc1C` the figure was 160 °C; with `CCc1cc(Cl)c(NN)c(Cl)c1`, 48 to 50 °C; with `O=C(OC(c1ccccc1)c1ccccc1)c1c(-c2ccccc2)oc2c(CCl)cccc2c1=O`, 186 °C.
Take `Oc1ccc(-c2nnnc(-c3cccc4ccccc34)c2-c2ccc(O)cc2O)c(O)c1`: the melting point was more than 280 °C.
To `c1ccc2c(c1)CCc1ccccc1C2CCN1CCCC1` belongs 51 to 53 °C; to `CS(=O)(=O)Nc1ccc(N)cc1CC1CCCCC1`, 160 to 162 °C.
To `CC(=O)Oc1ccc(CCc2cc(OC(C)=O)cc(OC(C)=O)c2)cc1` belongs 52 to 52.5 °C; to `CC(O)C(NCc1ccc([N+](=O)[O-])cc1)C(=O)O` (centres undefined), 142 to 143 °C.
`Cc1nn(-c2ccccn2)c2[nH]c3ccc(S(C)(=O)=O)cc3c(=O)c12` gave a melting point of more than 300 °C.
With `CCOC(=O)[C@H](CCc1ccccc1)N[C@@H](Cc1ccccc1)C(=O)NCCc1scnc1C(=O)O` the figure was 121 to 124 °C; with `COC(=O)CCC#Cc1cc(F)c(Cl)cc1N`, 67 to 68 °C.
With `CC1C=CC(Oc2ccc(C(=O)O)o2)=C2N=C3CCCCC3=C21` (centres undefined) the figure was 150 to 152 °C.
To `Cc1cc(C)c2c(c1C)OC(C)(C)C2` belongs 47 °C; to `COc1cc(O)ccc1C1=NC2=CCC(=O)NC2=N1`, more than 270 °C.
`Fc1ccc2c(CCCN3CCN(c4n[nH]c5ccccc45)CC3)noc2c1` came in with a melting point of 139 to 141 °C.
To `CC(C)NC(=O)N(Nc1cccc(Cl)c1Cl)C1=CCCN1` belongs 109 to 111 °C.
To `COCCOc1ccc(CCCO)c(Oc2ncc(Cl)cc2Cl)c1` belongs 83.9 to 84.5 °C; to `CCOC(=O)c1cn(CC)c2nc(N3CCN(Cc4ccc(Cl)cc4)CC3)ncc2c1=O`, 150 °C.
For the compound `COc1cc(C(=O)NS(=O)(=O)c2ccccc2C)ccc1Cc1cccc2ccc(C(N)=O)cc12`, the melting point lay within 255 to 256 °C.
In turn, `Cc1occc1C(=S)Nc1ccc(Cl)c(C=NN2CCOCC2)c1` yielded a melting point of 142 to 143 °C.
For `O=c1cc(Cl)c2cc(OC(F)(F)F)ccc2o1`, the melting point was 85 to 87 °C.
`O=C(O)c1cnc2ccc(-c3ccc(C(F)(F)F)cc3)cn12` came in with a melting point of 220 °C.
To `COc1ccc(OC)c2c1CCC(Nc1ccc(O)cc1)C2` (centres undefined) belongs 188 to 189 °C.
With `COc1ccc(CNc2nc(-c3ccccc3)c(-c3ccc(=O)n(C(C)C)n3)nc2C(=O)O)cc1` the figure was 216 to 217 °C; with `N#CCCN(N)c1cc2ccccc2[nH]1`, 120 to 122 °C; with `CC(C)(C)OC(=O)NC1CCN(C(=O)[C@@]23C[C@@H](c4ccccc42)c2ccc(Cl)cc23)CC1`, 154 to 156 °C.
To `COc1ccc(SC2(CCCC#Cc3ccc(Cl)cc3)SC(=O)NC2=O)cc1` (centres undefined) belongs 106 to 109 °C.
Turning to `Cc1cc2c(cc1F)c(C#N)c(-c1ccc(S(=O)(=O)N[C@H](C)C(F)(F)F)cn1)n2C1CCCC1`, the melting point was in the range of 191 to 193 °C.
As to `NS(=O)(=O)c1c(Cl)cccc1-c1ccccc1`, the melting point lay within 185 to 187 °C.
With `c1ccc(C2(c3ccccc3)CCNCCO2)cc1` the figure was 72 to 75 °C; with `Cc1oc(-c2ccco2)nc1COc1ccc(COc2nn(Cc3ccccc3)cc2C=O)cc1`, 118 to 119 °C; with `CN1C(CO)=Cc2cc(S(N)(=O)=O)sc2S1(=O)=O`, 144 to 146 °C.
In the case of `c1ccc(C2OC3(CCNCC3)N3CCCCC23)cc1` (centres undefined), the melting point was 169 to 171 °C.
With `CCOC(Cc1ccc(OCCN(C)c2nc3ccccc3o2)cc1)C(N)=S` (centres undefined) the figure was 46 to 48 °C; with `Cn1c2cc(Cl)cc(Cl)c2c2cc(C(=O)N3CCOCC3)sc21`, 224 to 226 °C.
`CCOCc1cc2ccccc2oc1=Nc1ccc(OC)cc1` gave a melting point of 78 to 79 °C.
With `Fc1ccccc1-c1nc2cccnc2o1` the figure was 119 to 120 °C.
With `COc1ccc2c(Cc3nc4c(F)c(F)cc(F)c4s3)cn(CC(=O)O)c2c1` the figure was 118 to 120 °C.
`CN(C)CC(=O)Nc1ccc2c(c1)C(=O)c1cc(NC(=O)CN(C)C)ccc1C2=O` showed a melting point of 218 °C.
In turn, `Clc1ccc(Cl)c(Oc2cccc(Cl)n2)c1` returned a melting point of 82 to 84 °C.
The compound `COCc1cnc2c(NC(=O)c3c(Cl)cccc3Cl)cc(C)cc2c1-n1ccnc1` registered a melting point of 99 to 101 °C.
With `Cc1nc2sccn2c(=O)c1O` the figure was 225 to 227 °C; with `Cc1c(NC(=O)c2ccc(OCc3ccccc3F)cc2)ccc2cc(CN3CCCC3)cnc12`, 104 to 105 °C; with `COc1cc(C(=O)O)c2oc(-c3ccccc3)cc2c1`, 185 to 187 °C.
To `C[C@@H]1N=C(c2ccccc2Cl)c2cc([N+](=O)[O-])ccc2NC1=O` belongs 200 to 202 °C; to `Cc1c(NC(=O)c2ccc(-c3ccc4c(c3)CCO4)cc2F)ccc2cc(CN3CCCCC3)cnc12`, 202 to 203 °C; to `CCCCCCCOc1ccc(C(=O)CCC(=O)OCC)cc1`, 39.7 to 40.1 °C.
Turning to `CCCCCCCCCc1cc(=O)c2c(O)cc(O)cc2o1`, the melting point came to 101 °C.
To `COc1cc2c(c3c1OC(C)(C)C3)C(c1ccn(CC(=O)Nc3cccnc3)c(=O)c1)=NC(C)(C)C2` belongs 251 to 253 °C; to `O=C(O)C1=CN(C2CC2)C(c2ccc3c(c2)OCO3)CC1=O` (centres undefined), 122 to 124 °C; to `CCCn1c(=O)cc(-n2nc(-c3c(-c4ccccc4)nn4ccccc34)ccc2=O)n(CC(=O)OC)c1=O`, 143 to 145 °C.
To `CCOC(=O)c1nc(-c2ccc(N3CCOCC3)cc2)[nH]c1-c1ccc(Cl)cc1` belongs 215 °C; to `CNS(=O)(=O)c1cc(C(=O)NCC2CCCN2CC2CC2)c(OC)cc1N` (centres undefined), 173 to 174 °C; to `O=C(NCCO)NC1CCCc2ccccc21` (centres undefined), 146 to 149 °C.
To `O=[N+]([O-])Nc1ccnc(Cl)c1` belongs 163 to 164 °C.
For the compound `O=c1cc(-c2cccc(Cl)c2)oc2ccc(OCCCCCCN3CCC(O)CC3)cc12`, the melting point lay in the range of 120 to 121 °C.
`CS(=O)(=O)c1ccc(S(=O)(=O)N2CCCC(c3ccc(Cl)c(Cl)c3)=N2)cc1` displayed a melting point of 181 to 183 °C.
To `CSc1ccc(/C=C2/C(C)=C(CCCN(O)C(N)=O)c3cc(F)ccc32)cc1` belongs 145 to 147 °C; to `Cc1nnc2n1-c1sc(CCC(=O)O)cc1C(c1ccccc1Cl)=NC2C` (centres undefined), 202 to 204 °C; to `CCCCCCCCCC(=O)c1ccc(O)c(C(=O)O)c1`, 118 to 119 °C.
To `CC1(C)Oc2c(ccc3ccccc23)C2OC21` (centres undefined) belongs 120 to 121 °C; to `C#CCN1C(=O)COc2ccc(C3CC(=O)C(C(CC)=NOCC)=C(O)C3)cc21` (centres undefined), 100 to 102 °C; to `O=C(O)C(O)=CC(=O)c1cn(Cc2ccc(C(F)(F)F)cc2)c(=O)n(Cc2ccc(C(F)(F)F)cc2)c1=O`, 176 to 178 °C.
The compound `CCCCCCCNC(=O)Nc1ccc(F)cc1C(=O)NC1CCN(C(c2ccccc2)c2ccccc2)CC1` showed a melting point of 208 to 210 °C.
With `Cc1ccc(N)cc1Nc1ncc(-c2cccnc2)o1` the figure was 166 °C; with `CCOC(=O)c1ccncn1`, 36.8 °C.
With `CCCc1ccc(S(=O)(=O)Nc2ccc3ncncc3c2)cc1` the figure was 202 to 203 °C.
With `Cc1ccc(S(=O)(=O)N2CCCC(S(=O)(=O)c3ccc(F)cc3)C2)cc1` (centres undefined) the figure was 186 °C.
`O=S(=O)(NCCc1ccc(OCc2nnn[nH]2)cc1)c1ccc(Cl)cc1`: the melting point was 136 °C.
To `CCOc1ccccc1OC(c1ccccc1)C(O)CN` (centres undefined) belongs 98.5 to 99.9 °C.
On to `Cc1ccccc1NC(=O)c1cc(Br)c(OCc2ccccc2)cc1OCc1ccccc1`, for which the melting point is 174 to 176 °C.
With `N=C(Nc1ccc(Cl)cc1)Nc1ncc(Cl)cc1OCc1c(F)cccc1Cl` the figure was 132 to 133 °C.
With `CCOC(=O)/C(C#N)=C/c1c(OC)cccc1OC` the figure was 99 to 101 °C; with `CC(=O)OC1(c2ccc3c(c2)OCO3)C(=O)N(Cc2ccc(Cl)cc2)c2ccccc21` (centres undefined), 146 to 148 °C.
With `Oc1ccc2c(c1)COc1c-2cc2ccc(O)cc2c1-c1ccccc1Cl` the figure was 220 to 222 °C.
`CCC(COc1cccc(COc2cccc3ccc(=O)[nH]c23)c1)OC(C)=O` (centres undefined): the melting point was in the range of 81 to 84 °C.
To `N#Cc1ccc(-n2c(=O)cc(C(F)(F)F)[nH]c2=O)cc1[N+](=O)[O-]` belongs 135 °C; to `COc1ccc(C(=O)Nc2c(Cl)cncc2Cl)c2c3cc(Cl)ccc3n(Cc3ccccc3)c12`, 210 to 213 °C; to `OCCOc1ccc2cccnc2c1`, 93 to 95 °C.
With `Cc1cc(N)c(C(=O)OC(C)C)cc1Oc1ccc(OC(F)(F)F)cc1` the figure was 71 to 72 °C; with `O=c1oc2cc(O)ccc2c2c1CCCCC2`, 189 to 190 °C; with `CCOC(=O)C(C)=NNc1ccc(F)cc1F`, 153 to 156 °C.
To `CC(C)Oc1nccc(-c2c(-c3ccc(F)cc3)ncn2C2CCC(=O)CC2)n1` belongs 161 to 163 °C.
